Experimental data from the NIST ThermoML archive (doi:10.1021/je1005517).
Numbers after ± are expanded uncertainties.

Experiment: activity coefficient (dimensionless); of the first substance listed, at infinite dilution; xn = mol fraction of the nth substance listed
Conditions: Liquid, GC, x1 = 0

Row | SMILES | activity coefficient (338.15 K, 101 kPa) | activity coefficient (343.15 K, 101 kPa) | activity coefficient (348.15 K, 101 kPa) | activity coefficient (353.15 K, 101 kPa) | activity coefficient (333.15 K, 101 kPa) | activity coefficient (333.15 K, 101.3 kPa) | activity coefficient (338.15 K, 101.3 kPa) | activity coefficient (343.15 K, 101.3 kPa) | activity coefficient (348.15 K, 101.3 kPa) | activity coefficient (353.15 K, 101.3 kPa)
1 | ClCCl [dichloromethane] + CCCCCCCCCCCCCCCCCCCCO | 0.079 ± 0.0047 | 0.0642 ± 0.0039 | 0.0532 ± 0.0032 | 0.0435 ± 0.0026 | – | – | – | – | – | –
2 | ClC(Cl)(Cl)Cl [tetrachloromethane] + CCCCCCCCCCCCCCCCCCO | 0.0285 ± 0.0017 | 0.0283 ± 0.0017 | 0.028 ± 0.0017 | 0.0278 ± 0.0017 | 0.0288 ± 0.0017 | – | – | – | – | –
3 | CCCCCCCC [octane] + CCCCCCCCCCCCCCCCCCO | 0.0497 ± 0.003 | 0.0485 ± 0.0029 | 0.0473 ± 0.0028 | 0.0461 ± 0.0028 | 0.0513 ± 0.0031 | – | – | – | – | –
4 | C1CCOC1 [tetrahydrofuran] + CCCCCCCCCCCCCCCCCCCCO | 0.0581 ± 0.0035 | 0.0543 ± 0.0033 | 0.0506 ± 0.003 | 0.0471 ± 0.0028 | – | – | – | – | – | –
5 | CCOC(C)=O [ethyl acetate] + CCCCCCCCCCCCCCCCCCO | – | – | – | – | – | 0.0445 ± 0.0027 | 0.0408 ± 0.0024 | 0.0384 ± 0.0023 | 0.036 ± 0.0022 | 0.0335 ± 0.002
6 | CCO [ethanol] + CCCCCCCCCCCCCCCCCCO | – | – | – | – | – | 0.0433 ± 0.0026 | 0.0396 ± 0.0024 | 0.0369 ± 0.0022 | 0.0343 ± 0.0021 | 0.032 ± 0.002
7 | C1CCOC1 [tetrahydrofuran] + CCCCCCCCCCCCCCCCCCO | 0.0188 ± 0.0011 | 0.0177 ± 0.0011 | 0.0166 ± 0.001 | 0.0156 ± 0.0009 | 0.0204 ± 0.0012 | – | – | – | – | –
8 | CCCCl [1-chloropropane] + CCCCCCCCCCCCCCCCCCO | – | – | – | – | – | 0.0331 ± 0.002 | 0.0294 ± 0.0018 | 0.0269 ± 0.0016 | 0.0245 ± 0.0015 | 0.0225 ± 0.0014
9 | ClC(Cl)Cl [trichloromethane] + CCCCCCCCCCCCCCCCCCCCO | 0.0632 ± 0.0038 | 0.0622 ± 0.0037 | 0.0612 ± 0.0037 | 0.0604 ± 0.0036 | – | – | – | – | – | –
10 | CCCCCC [hexane] + CCCCCCCCCCCCCCCCCCCCO | 0.129 ± 0.0077 | 0.124 ± 0.0074 | 0.119 ± 0.0072 | 0.115 ± 0.0069 | – | – | – | – | – | –
11 | CCCCl [1-chloropropane] + CCCCCCCCCCCCCCCCCCCCO | 0.0779 ± 0.0047 | 0.0778 ± 0.0047 | 0.0778 ± 0.0047 | 0.0777 ± 0.0047 | – | – | – | – | – | –
12 | ClC(Cl)(Cl)Cl [tetrachloromethane] + CCCCCCCCCCCCCCCCCCCCO | 0.0862 ± 0.0052 | 0.081 ± 0.0049 | 0.076 ± 0.0046 | 0.0714 ± 0.0043 | – | – | – | – | – | –
13 | CCCCCCCC [octane] + CCCCCCCCCCCCCCCCCCCCO | 0.187 ± 0.011 | 0.161 ± 0.0096 | 0.138 ± 0.0083 | 0.12 ± 0.0072 | – | – | – | – | – | –
14 | CO [methanol] + CCCCCCCCCCCCCCCCCCO | 0.0386 ± 0.0023 | 0.0357 ± 0.0021 | 0.033 ± 0.002 | 0.0306 ± 0.0018 | 0.0423 ± 0.0025 | – | – | – | – | –
15 | CCO [ethanol] + CCCCCCCCCCCCCCCCCCCCO | 0.124 ± 0.0075 | 0.117 ± 0.007 | 0.106 ± 0.0063 | 0.095 ± 0.0057 | – | – | – | – | – | –
16 | CCOCC [diethyl ether] + CCCCCCCCCCCCCCCCCCCCO | 0.0652 ± 0.0039 | 0.0624 ± 0.0037 | 0.0598 ± 0.0036 | 0.0572 ± 0.0034 | – | – | – | – | – | –
17 | CCCCC [pentane] + CCCCCCCCCCCCCCCCCCCCO | 0.0954 ± 0.0057 | 0.0801 ± 0.0048 | 0.0668 ± 0.004 | 0.0564 ± 0.0034 | – | – | – | – | – | –
18 | Cc1ccccc1 [toluene] + CCCCCCCCCCCCCCCCCCCCO | 0.544 ± 0.033 | 0.479 ± 0.029 | 0.421 ± 0.025 | 0.373 ± 0.022 | – | – | – | – | – | –
19 | CCCO [propan-1-ol] + CCCCCCCCCCCCCCCCCCCCO | 0.213 ± 0.013 | 0.193 ± 0.012 | 0.175 ± 0.011 | 0.159 ± 0.0095 | – | – | – | – | – | –
20 | CCCCO [butan-1-ol] + CCCCCCCCCCCCCCCCCCCCO | 0.431 ± 0.026 | 0.387 ± 0.023 | 0.352 ± 0.021 | 0.316 ± 0.019 | – | – | – | – | – | –
21 | C=CCCCCC [1-heptene] + CCCCCCCCCCCCCCCCCCCCO | 0.124 ± 0.0074 | 0.118 ± 0.0071 | 0.113 ± 0.0068 | 0.108 ± 0.0065 | – | – | – | – | – | –
22 | C=CCCC [1-pentene] + CCCCCCCCCCCCCCCCCCO | – | – | – | – | – | 0.0261 ± 0.0016 | 0.0245 ± 0.0015 | 0.0234 ± 0.0014 | 0.0222 ± 0.0013 | 0.0213 ± 0.0013
23 | CCCCOC(C)=O [butyl ethanoate] + CCCCCCCCCCCCCCCCCCO | – | – | – | – | – | 0.0526 ± 0.0032 | 0.0468 ± 0.0028 | 0.0428 ± 0.0026 | 0.0391 ± 0.0023 | 0.0358 ± 0.0021
